Test results published in the supplement of paper PMC4862054.

Experiments:
Test in all cases: normalised response (% of control), CellTiter-Glo; higher = more viable cells (100 = DMSO, 0 = benzethonium chloride kill control)
Conditions in all cases: incubation time: 72 h
BT-549 = system: BT-549
Summary of the method: (§1)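 Two readouts were taken after 72 h: CellTox Green fluorescence (485/520 nm) first, then CellTiter-Glo luminescence after 10 min at room temperature. Breast cancer cell lines had been seeded as 20 µl suspension into 384-well plates holding compound at 5 concentrations in 10-fold steps across a compound-specific 10,000-fold range. Each value is a normalised signal at a single concentration, with plates scaled to 0.1 % DMSO (100) and a positive kill control (0).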

MFM-223 = system: MFM-223
Summary of the method: as §1

MCF-10A = system: MCF-10A
Summary of the method: as §1

MDA-MB-231 = system: MDA-MB-231
Summary of the method: as §1

HDQ-P1 = system: HDQ-P1
Summary of the method: as §1

DU-4475 = system: DU-4475
Summary of the method: as §1

MDA-MB-436 = system: MDA-MB-436
Summary of the method: as §1

MDA-MB-453 = system: MDA-MB-453
Summary of the method: as §1

HCC1599 = system: HCC1599
Summary of the method: as §1

Hs578T = system: Hs578T
Summary of the method: as §1

SK-BR-3 = system: SK-BR-3
Summary of the method: as §1

CAL-148 = system: CAL-148
Summary of the method: as §1

BT-474 = system: BT-474
Summary of the method: as §1

CAL-120 = system: CAL-120
Summary of the method: as §1

HCC1937 = system: HCC1937
Summary of the method: as §1

MDA-MB-468 = system: MDA-MB-468
Summary of the method: as §1

CAL-85-1 = system: CAL-85-1
Summary of the method: as §1

HCC1143 = system: HCC1143
Summary of the method: as §1

CAL-51 = system: CAL-51
Summary of the method: as §1

Compound | normalised response (BT-549) | normalised response (MFM-223) | normalised response (MCF-10A) | normalised response (MDA-MB-231) | normalised response (HDQ-P1) | normalised response (DU-4475) | normalised response (MDA-MB-436) | normalised response (MDA-MB-453) | normalised response (HCC1599) | normalised response (Hs578T) | normalised response (SK-BR-3) | normalised response (CAL-148) | normalised response (BT-474) | normalised response (CAL-120) | normalised response (HCC1937) | normalised response (MDA-MB-468) | normalised response (CAL-85-1) | normalised response (HCC1143) | normalised response (CAL-51)
O=C(O)C(=O)O.[NH-][C@@H]1CCCC[C@H]1[NH-].[Pt+2] [Oxaliplatin] (10 nM) | 96.8% | 92% | 91% | 92.7% | 99.8% | 90.9% | 104% | 81.9% | 95% | 101% | 98.4% | 83.7% | 101% | 101% | 94.8% | 97.2% | 98.7% | 94% | 124%
CC[C@H](C)C(=O)O[C@H]1C[C@H](O)C=C2C=C[C@H](C)[C@H](CC[C@@H](O)C[C@@H](O)CC(=O)O)[C@H]21 [Pravastatin] (10 nM) | 92.2% | 92.3% | 102% | 99.1% | 106% | 91.5% | 97.7% | 85.2% | 88.5% | 100% | 95.6% | 98.7% | 98.1% | 105% | 95.4% | 104% | 104% | 97.3% | 128%
Oc1ncc(N(CCCl)CCCl)c(O)n1 [Uracil mustard] (1 nM) | 89.4% | 101% | 105% | 97.2% | 98.8% | 95.6% | 95.8% | 105% | 105% | 99.7% | 99.7% | 101% | 105% | 98.6% | 103% | 107% | 94.2% | 102% | 115%
CNC(=O)c1cc(Oc2ccc(NC(=O)Nc3cc(C(C)(C)C)nn3-c3ccc4ncccc4c3)c(F)c2)ccn1 [Rebastinib] (1 nM) | 93.8% | 100% | 109% | 94.7% | 100% | 98.8% | 99.5% | 93.5% | 102% | 103% | 104% | 109% | 98.8% | 99.1% | 97.6% | 96.3% | 99.5% | 104% | 123%
O=C(O)C1(C(=O)O)CCC1.[NH2-].[NH2-].[Pt+2] [Carboplatin] (1 nM) | 99% | 98.8% | 108% | 104% | 97.5% | 100% | 101% | 109% | 103% | 101% | 89.3% | 100% | 98.9% | 97% | 101% | 95.2% | 96.6% | 103% | 115%
COc1cc2nccc(Oc3ccc(NC(=O)Nc4cc(C)on4)c(Cl)c3)c2cc1OC [Tivozanib] (1 nM) | 102% | 88.6% | 79% | 98.9% | 93.5% | 97.5% | 83.2% | 94.7% | 88.6% | 91% | 91.2% | 94.3% | 91.4% | 95.7% | 92.7% | 97.3% | 93% | 94.2% | 108%
C=CC(=O)N1CCC[C@@H](n2nc(-c3ccc(Oc4ccccc4)cc3)c3c(N)ncnc32)C1 [Ibrutinib] (0.1 nM) | 102% | 106% | 109% | 102% | 93.6% | 102% | 96.8% | 110% | 104% | 104% | 109% | 101% | 101% | 97.1% | 97.3% | 103% | 100% | 96.3% | 99.3%
COc1cc2c(NC3CCN(C(C)C)CC3)nc(C3CCCCC3)nc2cc1OCCCN1CCCC1 [UNC0638] (1 nM) | 103% | 87.1% | 84.2% | 93.3% | 103% | 88.9% | 90% | 95.6% | 76.7% | 99.7% | 90.8% | 86.8% | 91.1% | 104% | 95.3% | 90.5% | 97.4% | 94.6% | 117%
CC[C@@H]1C(=O)N(C)c2cnc(Nc3ccc(C(=O)NC4CCN(C)CC4)cc3OC)nc2N1C1CCCC1 [BI 2536] (0.1 nM) | 103% | 106% | 106% | 103% | 95.7% | 103% | 104% | 92.6% | 110% | 97.4% | 112% | 102% | 105% | 104% | 98.7% | 108% | 105% | 94.9% | 103%
CCN(CC)CCCC(C)Nc1c2ccc(Cl)cc2nc2ccc(OC)cc12 (centres undefined) [Mepacrine] (5 nM) | 104% | 97.2% | 107% | 99.8% | 105% | 96.2% | 111% | 96.9% | 95.6% | 100% | 104% | 94.5% | 96.1% | 107% | 102% | 100% | 93.8% | 97.5% | 97.8%
O=C(Cc1ccc(-c2ccc(OCCN3CCOCC3)cc2)cn1)NCc1ccccc1 [KX2-391] (1 nM) | 105% | 106% | 121% | 107% | 100% | 101% | 102% | 113% | 83.3% | 103% | 120% | 107% | 105% | 97.2% | 99.4% | 102% | 95.2% | 105% | 107%
Nc1ncn([C@H]2C[C@H](O)[C@@H](CO)O2)c(=O)n1 [Decitabine] (1 nM) | 90% | 96.4% | 92.4% | 104% | 98.2% | 102% | 96.5% | 110% | 99.7% | 94.3% | 96.2% | 92.1% | 99.1% | 97% | 101% | 102% | 99% | 90.8% | 76.5%
C[C@H]1C[C@@H]2[C@H]([C@@H](O)C[C@@]3(C)[C@H]2CC[C@]3(O)C(=O)CO)[C@@]2(C)C=CC(=O)C=C12 [Methylprednisolone] (10 nM) | 101% | 112% | 113% | 135% | 96.8% | 108% | 110% | 108% | 93.7% | 103% | 109% | 111% | 127% | 96.2% | 101% | 99.8% | 112% | 104% | 116%
Nc1nc2[nH]cc(CCc3ccc(C(=O)N[C@@H](CCC(=O)O)C(=O)O)cc3)c2c(=O)[nH]1 [Pemetrexed] (1 nM) | 105% | 92.6% | 95.7% | 97.4% | 105% | 95.1% | 98.7% | 101% | 85.1% | 101% | 101% | 98.9% | 97.8% | 106% | 96.8% | 99% | 94.2% | 91.6% | 90%
CCc1cncnc1N1CCN(Cc2nc3ccc(C(F)(F)F)cc3[nH]2)CC1 (1 nM) | 108% | 103% | 106% | 105% | 105% | 103% | 107% | 115% | 114% | 101% | 110% | 106% | 107% | 101% | 95.5% | 109% | 97.3% | 99.5% | 125%
COc1cc2nccc(Oc3ccc(NC(=O)Nc4cc(C)on4)c(Cl)c3)c2cc1OC [Tivozanib] (10 nM) | 100% | 87.2% | 90.3% | 98.5% | 100% | 99.1% | 94.2% | 91.7% | 98.2% | 94.3% | 80.7% | 82.1% | 89.9% | 97.4% | 98.7% | 93.5% | 93.5% | 99.9% | 85.4%
Nc1nc2[nH]cc(CCc3ccc(C(=O)N[C@@H](CCC(=O)O)C(=O)O)cc3)c2c(=O)[nH]1 [Pemetrexed] (10 nM) | 108% | 94.9% | 100% | 96.9% | 99.5% | 95.3% | 91.3% | 92.8% | 88.7% | 98.5% | 97.1% | 98% | 98.2% | 105% | 104% | 93.9% | 97.5% | 106% | 73.3%
O=C(/C=C/c1cccnc1)NCCCCC1CCN(C(=O)c2ccccc2)CC1 [Daporinad] (1 nM) | 98% | 87.2% | 106% | 101% | 98.1% | 105% | 105% | 88.8% | 106% | 97.1% | 113% | 101% | 106% | 105% | 101% | 103% | 103% | 106% | 114%
CCN(CC)CCCC(C)Nc1c2ccc(Cl)cc2nc2ccc(OC)cc12 (centres undefined) [Mepacrine] (50 nM) | 104% | 98.7% | 92.9% | 94% | 104% | 96.1% | 96.2% | 96.1% | 106% | 99.1% | 95.3% | 96.8% | 102% | 98.6% | 104% | 103% | 101% | 98% | 120%
N#Cc1ccc(C(c2ccc(C#N)cc2)n2cncn2)cc1 [Letrozole] (1 nM) | 103% | 98.8% | 110% | 98.2% | 94.1% | 97.8% | 104% | 113% | 122% | 105% | 106% | 92% | 99.8% | 95.7% | 89.2% | 104% | 100% | 97.5% | 121%
CC[C@H](Nc1ncnc2[nH]cnc12)c1nc2cccc(F)c2c(=O)n1-c1ccccc1 [GS-1101] (10 nM) | 92.7% | 87.8% | 89.7% | 93.2% | 94.2% | 100% | 88.3% | 89.1% | 112% | 97.4% | 65% | 87% | 93.7% | 93.2% | 92.3% | 99.8% | 95.3% | 93.2% | 122%
